Assay [1] relates to cholesterol in serum. Kind of assay: Hypocholesterolemic effect in cholesterol-fed mice. The assay is classed as in vivo, Male ICR mice. The conditions noted are these: Mus musculus, po, 168 h, diet 1% cholesterol and 0.5% sodium cholate with 0.12% test compound, 7 days. The method, then:
Hypocholesterolemic effect
Male ICR mice weighing 30 to 40 g were allowed to access to a diet containing 1% cholesterol and 0.5% sodium cholate supplemented with 0.12% of a test compound (no test compound in control group) ad libitum for 7 days. Then, the blood was taken and total cholesterol in serum was determined by the method of Allain (Clin. Chem., Vol. 20, 470 (1974)).
Total amount of VLDL cholesterol and LDL cholesterol was obtained by subtracting HLD cholesterol from total cholesterol. HLD cholesterol was quantified by the method of Ash and Hentschel et al. (Clin. Chem., Vol. 24, 2180 (1978)).
Hypocholesterolemic effect of a test compound was evaluated based on % reduction in cholesterol calculated using the equation shown below.

Assay [2] concerns LDL. Put plainly: Inhibitory effect on oxidative modification of LDL (copper-induced, TBA reactive substances). The class given is biochemical, New Zealand albino rabbits. The conditions noted are these: rabbit LDL 0.2 mg protein/ml, 0.5 μM Cu^2+, 37° C., 24 hours; read-out: Inhibition of LDL oxidation IC50. The method, then:
Inhibitory effect on oxidative modification of LDL
According to the method by Kita et al. (Proc. Natl. Acad. Sci., U.S.A, Vol. 84, 5928 (1987)), the experiment was proceeded as follows.
LDL was isolated from the blood of New Zealand albino rabbits fed with a diet containing 0.5% cholesterol for 3 weeks, and dissolved in phosphate-buffered physiological saline (final LDL concentration: 0.2 mg protein/ml). To this solution, each test compound in ethanol was added and then copper sulfate (final Cu^2+ concentration: 0.5 μM) was added thereto. The mixture was incubated at 37° C. for 24 hours.
After incubation, the content of lipid peroxides in each solution was determined as thiobarbituric acid reactive substances (TBA reactive substances). Concentration for 50% inhibition (IC50) was obtained from a linear regression curve of concentration of a compound versus % inhibition of oxidative modification of LDL. To quantify TBA reactive substances, proteins were removed from the solution after incubation, and the supernatant was examined for the content of TBA reactive substances by TBA method.

The mark [3] stands for this setting: serum, read-out: Total Chol. reduction (%).
Setting [4] is: total minus HDL cholesterol, read-out: (VLDL + LDL) Chol. reduction (%).

This passage reports inhibition in vivo and IC50 results from patent US5449814A, “Lignan analogues, methods of preparation thereof and anti-hyperlipemic agents” (Shionogi & Co., Ltd., priority 1991, dated 1995).

Each structure is given as a SMILES string. Where two headings read alike, the source gives them in different places.

The IC50 is the midpoint of a concentration-inhibition curve. As to `CCC(CC)CC(=O)c1c(C(=O)OC)c(-c2ccc(OC)cc2OC)c2c(OC)c(OC)c(OC)cc2c1O` [Example 42, 1-(2,4-Dimethoxyphenyl)-3-(3-ethyl-1-oxopentyl)-4-hydroxy-2-methoxycarbonyl-6,7,8-trimethoxynaphthalene], the inhibition in vivo at 0.12 % in diet in assay [1] (setting [3]) was 5%; in assay [1] (setting [4]), 26%. Moreover, the IC50 in assay [2] was found to be 1680 nM.
The like results for `COC(=O)c1c(C(=O)c2ccccc2)c(O)c2cc(OC)c(OC)c(OC)c2c1-c1ccc(OC)c(OC)c1` [Example 6, 3-Benzoyl-1-(3,4-dimethoxyphenyl)-4-hydroxy-2-methoxycarbonyl-6,7,8-trimethoxynaphthalene] were, in that order, 16%, 55% and 180 nM.
Regarding `CCC(=O)c1c(C(=O)OC)c(-c2ccc(OC)c(OC)c2)c2c(OC)c(OC)c(OC)cc2c1O` [Example 16, 1-(3,4-Dimethoxyphenyl)-4-hydroxy-2-methoxycarbonyl-3-(1-oxopropyl)-6,7,8-trimethoxynaphthalene], the values for the inhibition in vivo at 0.12 % in diet in assay [1] (setting [3]) and in assay [1] (setting [4]) were 26% and 56%, respectively. In addition, in assay [2], the half-maximal inhibitory concentration (IC50) was determined as 1850 nM.
Regarding `CCC(=O)c1c(C(=O)OC)c(-c2ccc(OC)c(OC)c2)c2cc(OC(C)C)c(OC(C)C)cc2c1O` [Example 38, 6,7-Bis(2-propyloxy)-1-(3,4-dimethoxyphenyl)-4-hydroxy-2-methoxycarbonyl-3-(1-oxopropyl)naphthalene], the inhibition in vivo at 0.12 % in diet in assay [1] (setting [3]) was found to be 26%; in assay [1] (setting [4]), 61%. In addition, the IC50 in assay [2] was found to be 2100 nM.
Consider `COC(=O)c1c(C(=O)C(C)C)c(O)c2c(OC)c(OC)c(OC)c(OC)c2c1-c1ccc(OC)c(OC)c1` [Example 77, 1-(3,4-dimethoxyphenyl)-3-(2-methyl-1-oxopropyl)-4-hydroxy-2-methoxycarbonyl-5,6,7,8-tetramethoxynaphthalene], for which the inhibition in vivo at 0.12 % in diet worked out at 18% in assay [1] (setting [3]) and 53% in assay [1] (setting [4]). Moreover, the IC50 in assay [2] is 2550 nM.
Consider `CCC(CC)C(=O)c1c(C(F)(F)F)c(-c2ccc(OC)c(OC)c2)c2c(OC)c(OC)c(OC)cc2c1O` [Example 66, 1-(3,4-Dimethoxyphenyl)-3-(2-ethyl-1-oxobutyl)-4-hydroxy-2-(trifluoromethyl)-6,7,8-trimethoxynaphthalene], for which the inhibition in vivo at 0.12 % in diet in assay [1] (setting [3]) amounted to 9%; in assay [1] (setting [4]), 36%. Also, the IC50 in assay [2] was 1470 nM.
For `CCC(=O)c1c(C(=O)OC)c(-c2ccc(OC)c(OC)c2)c2c(OC)c(OC)c(OC)c(COC)c2c1O` [Example 74, 1-(3,4-dimethoxyphenyl)-3-(1-oxopropyl)-4-hydroxy-2-methoxycarbonyl-5-methoxymethyl-6,7,8-trimethoxynaphthalene] the same measures were 6%, 41% and 6560 nM.
`COC(=O)c1c(C(=O)c2ccc(C(F)(F)F)cc2)c(O)c2cc3c(cc2c1-c1ccc(OC)cc1OC)OCO3` [Example 46, 1-(2,4-Dimethoxyphenyl)-4-hydroxy-2-methoxycarbonyl-6,7-methylenedioxy-3-[4-(trifluoromethyl)benzoyl]naphthalene]: the inhibition in vivo at 0.12 % in diet in assay [1] (setting [3]) was determined as 5%; in assay [1] (setting [4]), 47%. Moreover, in assay [2], the IC50 was determined as 6200 nM.
For `CCC(CC)CC(=O)c1c(C(=O)OC)c(-c2ccc(OC)c(OC)c2)c2c(OC)c(OC)c(OC)c(CO)c2c1O` [Example 71, 1-(3,4-dimethoxyphenyl)-3-(3-ethyl-1-oxopentyl)-4-hydroxy-5-hydroxymethyl-2-methoxycarbonyl-6,7,8-trimethoxynaphthalene] the same measures were 16%, 44% and 5960 nM.
For the compound `CCC(CC)CC(=O)c1c(C(=O)OC)c(-c2ccc(OC)c(F)c2)c2c(OC)c(OC)c(OC)cc2c1O` [Example 61, 3-(3-Ethyl-1-oxopentyl)-1-(3-fluoro-4-methoxyphenyl)-4-hydroxy-2-methoxycarbonyl-6,7,8-trimethoxynaphthalene], the inhibition in vivo at 0.12 % in diet turned out to be 11% in assay [1] (setting [3]) and 43% in assay [1] (setting [4]). Also, the IC50 in assay [2] was determined as 4950 nM.
Turning to `COC(=O)c1c(C(=O)c2ccc(C(C)(C)C)cc2)c(O)c2cc(OC)c(OC)c(OC)c2c1-c1ccc(OC)c(OC)c1` [Example 30, 3-[4-(t-Butyl)benzoyl]-1-(3,4-dimethoxyphenyl)-4-hydroxy-2-methoxycarbonyl-6,7,8-trimethoxynaphthalene], the inhibition in vivo at 0.12 % in diet turned out to be 7% in assay [1] (setting [3]) and 44% in assay [1] (setting [4]). In assay [2], the 50% inhibitory concentration (IC50) amounted to 2000 nM.
With `COC(=O)c1c(C(=O)c2ccc(F)cc2)c(O)c2cc(OC)c(OC)c(OC)c2c1-c1ccc(OC)c(OC)c1` [Example 26, 1-(3,4-Dimethoxyphenyl)-3-(4-fluorobenzoyl)-4-hydroxy-2-methoxycarbonyl-6,7,8-trimethoxynaphthalene], the inhibition in vivo at 0.12 % in diet in assay [1] (setting [3]) worked out at 10%; in assay [1] (setting [4]) it was 54%. The IC50 in assay [2] was determined as 790 nM.
As to `CCC(=O)c1c(C(=O)OC)c(-c2ccc(OC)cc2OC)c2c(OC)c(OC)c(OC)cc2c1O` [Example 41, 1-(2,4-Dimethoxyphenyl)-4-hydroxy-2-methoxycarbonyl-3-(1-oxopropyl)-6,7,8-trimethoxynaphthalene], the inhibition in vivo at 0.12 % in diet was 11% in assay [1] (setting [3]) and 41% in assay [1] (setting [4]). Besides, in assay [2], the IC50 worked out at 17000 nM.
`COC(=O)c1c(C(=O)c2cccc(C)c2)c(O)c2cc(OC)c(OC)c(OC)c2c1-c1ccc(OC)c(OC)c1` [Example 18, 1-(3,4-Dimethoxyphenyl)-4-hydroxy-2-methoxycarbonyl-3-(3-methylbenzoyl)-6,7,8-trimethoxynaphthalene]: the figures for the inhibition in vivo at 0.12 % in diet in assay [1] (setting [3]) and in assay [1] (setting [4]) were 13% and 66%, respectively. The IC50 in assay [2] is 1000 nM.
On to `CCC(CC)CC(=O)c1c(C(=O)OC)c(-c2ccc3c(c2)OCCO3)c2c(OC)c(OC)c(OC)cc2c1O` [Example 60, 1-[3,4-(Ethylenedioxy)phenyl]-3-(3-ethyl-1-oxopentyl)-4-hydroxy-2-methoxycarbonyl-6,7,8-trimethoxynaphthalene], for which the inhibition in vivo at 0.12 % in diet in assay [1] (setting [3]) was found to be 6%; in assay [1] (setting [4]), 33%.
Turning to `COC(=O)c1c(C(=O)c2ccc(Cl)cc2)c(O)c2cc3c(cc2c1-c1ccc(OC)c(OC)c1)OCO3` [Example 34, 3-(4-Chlorobenzoyl)-1-(3,4-dimethoxyphenyl)-4-hydroxy-2-methoxycarbonyl-6,7-(methylenedioxy)naphthalene], the inhibition in vivo at 0.12 % in diet was determined as 23% in assay [1] (setting [3]) and 53% in assay [1] (setting [4]).
Take `CCC(CC)C(=O)c1c(C(=O)OC)c(-c2ccc(OC)c(OC)c2)c2cc3c(cc2c1O)OCO3` [Example 33, 1-(3,4-Dimethoxyphenyl)-3-(2-ethyl-1-oxobutyl)-4-hydroxy-2-methoxycarbonyl-6,7-(methylenedioxy)naphthalene]: the inhibition in vivo at 0.12 % in diet in assay [1] (setting [3]) is 19%; in assay [1] (setting [4]), 50%.
